Test results reported in patent US8575197B2, “Pyrolinone derivative and pharmaceutical composition comprising the same” (Shionogi & Co., Ltd., priority 2008, dated 2013).

biological target: human P2X3 receptor (Homo sapiens (Human), UniProt P56373); test: P2X3 receptor inhibition, ATP-evoked Fluo-3 calcium fluorescence (FDSS 3000); assay type: cell-based; details: C6BU-1 cell transfected with human P2X3 receptor gene; ATP-evoked Fluo-3 fluorescence
Experimental: Stably expressing cell line (C6BU-1 cell transfected with human P2X3 receptor gene (GenBank accession number Y07683)) was used. The cells were seeded in a 96-well microtiter plate at a concentration of 8000 cells/well and cultured in the medium (8.3% fetal bovine serum, 8.3% horse serum, 1% antibiotic and antifungal in DMEM) for one day at 37° C. under 5% carbon dioxide atmosphere. The medium was replaced with 4 μM Fluo-3-AM solution (pH7.5) containing 20 mM HEPES, 137 mM NaCl, 2.7 mM KCl, 0.9 mM MgCl2, 5.0 mM CaCl2, 5.6 mM D-glucose, 2.5 mM probenecid, 10% BSA, and 0.08% Pluronic F-127, and incubated at 37° C. under 5% dioxide carbon atmosphere for one hour. The plate was washed with washing buffer (20 mM HEPES, 137 mM NaCl, 2.7 mM KCl, 0.9 mM MgCl2, 5.0 mM CaCl2, 5.6 mM D-glucose, 2.5 mM probenecid, pH7.5), and each well was added with 40 μL of this buffer. The plate was placed in High-Throughput Screening System FDSS 3000 (Hamamatsu Photonics K.K.). Measurement of fluorescence intensity by FDSS 3000 was started, and 40 μL of DMSO solutions containing different concentrations of the test compound as prepared by dilution with dilution buffer (20 mM HEPES, 137 mM NaCl, 2.7 mM KCl, 0.9 mM MgCl2, 5.0 mM CaCl2, 5.6 mM D-glucose, 2.5 mM probenecid, 0.1% Pluronic F-127, pH7.5) were dispensed to each well through the built-in automatic dispenser. Five minutes after, 40 nM ATP solution (50 μL) prepared by dilution with the dilution buffer was dispensed through the built-in automatic dispenser, and the measurement of fluorescence intensity was continued for 3 min. For each well, the specific maximum fluorescence intensity was calculated as the ratio of the maximum fluorescence intensity after addition of the ATP solution to the fluorescence intensity at the starting of the measurement. […] FDSS software (Hamamatsu Photonics K.K.) was used for calculation of the specific maximum fluorescence intensity. IC50 was calculated using Microsoft™ Excel™ (Microsoft Corporation) and XLfit™ (ID Business Solutions Ltd.).

human P2X3 receptor, sequence (P56373 whole entry): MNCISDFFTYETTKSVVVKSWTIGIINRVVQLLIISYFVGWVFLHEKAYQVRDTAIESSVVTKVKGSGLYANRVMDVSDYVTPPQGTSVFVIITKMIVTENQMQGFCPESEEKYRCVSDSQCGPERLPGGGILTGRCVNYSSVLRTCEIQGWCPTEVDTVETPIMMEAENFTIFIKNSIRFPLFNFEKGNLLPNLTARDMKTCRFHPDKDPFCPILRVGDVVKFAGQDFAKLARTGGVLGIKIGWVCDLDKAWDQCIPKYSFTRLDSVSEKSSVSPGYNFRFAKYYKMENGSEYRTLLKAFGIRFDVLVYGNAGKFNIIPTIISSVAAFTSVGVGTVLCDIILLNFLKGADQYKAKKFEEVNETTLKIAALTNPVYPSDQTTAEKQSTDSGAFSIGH

SMILES | IC50 [nM]
CC(C)(C)C(=O)C1=C(O)C(=O)N(c2ccc(-c3ccon3)cc2)C1c1cccc[n+]1[O-] (centres unmarked) [Compound I-005] | 247
COc1ccccc1C1C(C(=O)C(F)(F)F)=C(O)C(=O)N1c1ccc(-c2ccon2)cc1 (centres unmarked) [Compound I-010] | 595
COc1cc(F)ccc1C1C(C(=O)C(C)(C)C)=C(O)C(=O)N1c1ccc(-c2ccon2)cc1 (centres unmarked) [Compound I-011] | 270
COc1ccc(C(=O)C2=C(O)C(=O)N(c3ccc4[nH]ccc4c3)C2C2CCCCC2)cc1 (centres unmarked) [Compound I-012] | 340
COc1ccc(C(=O)C2=C(O)C(=O)N(c3ccc(-c4cccn4C)cc3)C2C2CCCCC2)cc1 (centres unmarked) [Compound I-014] | 134
COc1ccc(F)cc1C1C(C(=O)C(C)(C)C)=C(O)C(=O)N1c1ccc(-c2ccon2)cc1 (centres unmarked) [Compound I-021] | 382
O=C(C1=C(O)C(=O)N(c2ccc(-c3ccon3)cc2)C1C1CCCCC1)c1ccc(OC(F)(F)F)cc1 (centres unmarked) [Compound I-026] | 339
COc1ccc(C(=O)C2=C(O)C(=O)N(c3ccc(-c4nccs4)cc3)C2c2ccccc2OC)cc1 (centres unmarked) [Compound I-029] | 160
COc1ccccc1C1C(C(=O)C2(CO)CCCCC2)=C(O)C(=O)N1c1ccc(-c2ccon2)cc1 (centres unmarked) [Compound I-031] | 700
COc1ccc(C(=O)C2=C(O)C(=O)N(c3ccc(-c4nc(C)no4)cc3)C2c2ccccc2OC)cc1 (centres unmarked) [Compound I-032] | 160
COc1ccc(C(=O)C2=C(O)C(=O)N(c3ccc(-c4cccnc4)cc3)C2c2ccccc2OC)cc1 (centres unmarked) [Compound I-034] | 700
COc1ccccc1C1C(C(=O)C(C)(C)C)=C(O)C(=O)N1c1ccc(C(C)C)cc1 (centres unmarked) [Compound I-037] | 954
COc1ccc2sc(N3C(=O)C(O)=C(C(=O)C(C)(C)C)C3c3ccccc3OC)nc2c1 (centres unmarked) [Compound I-038] | 926
CCCc1ccc(N2C(=O)C(O)=C(C(=O)C(C)(C)C)C2c2ccccc2OC)cc1 (centres unmarked) [Compound I-044] | 468
COc1ccccc1C1C(C(=O)C(C)(C)C)=C(O)C(=O)N1c1ccc(C(C)(C)C)cc1 (centres unmarked) [Compound I-046] | 580
COc1ccccc1C1C(C(=O)C(C)(C)C)=C(O)C(=O)N1c1ccc(SC(F)(F)F)cc1 (centres unmarked) [Compound I-047] | 221
COCc1ccccc1C1C(C(=O)C(C)(C)C)=C(O)C(=O)N1c1ccc(-c2cc(C)no2)cc1 (centres unmarked) [Compound I-050] | 642
COCc1ccccc1C1C(C(=O)C(C)(C)C)=C(O)C(=O)N1c1ccc(-c2noc(C)n2)cc1 (centres unmarked) [Compound I-051] | 277
COc1ccccc1C1C(C(=O)C(C)(C)C)=C(O)C(=O)N1c1ccc(SC)cc1 (centres unmarked) [Compound I-052] | 187
CC(C)(C)C(=O)C1=C(O)C(=O)N(c2ccc(-c3ccon3)cc2)C1c1cccc2c1OCO2 (centres unmarked) [Compound I-055] | 596

SMILES | IC50 [nM]
CSc1ccccc1C1C(C(=O)C(C)(C)C)=C(O)C(=O)N1c1ccc(-c2ccon2)cc1 (centres unmarked) [Compound I-057] | 159
CCOc1ccccc1C1C(C(=O)C(C)(C)C)=C(O)C(=O)N1c1ccc(-c2ccon2)cc1 (centres unmarked) [Compound I-059] | 260
CC(C)(C)C(=O)C1=C(O)C(=O)N(c2ccc(-c3ccon3)cc2)C1c1ccccc1OC(F)F (centres unmarked) [Compound I-064] | 137
COc1ncccc1C1C(C(=O)C(C)(C)C)=C(O)C(=O)N1c1ccc(SC)cc1 (centres unmarked) [Compound I-066] | 434
COc1ccccc1C1C(C(=O)C(C)(C)CO)=C(O)C(=O)N1c1ccc(SC)cc1 (centres unmarked) [Compound I-068] | 305
CN(C)c1ccccc1C1C(C(=O)C(C)(C)C)=C(O)C(=O)N1c1ccc(-c2ccon2)cc1 (centres unmarked) [Compound I-070] | 519
COc1ccccc1C1C(C(=O)CC(C)(C)C)=C(O)C(=O)N1c1ccc(-c2ccon2)cc1 (centres unmarked) [Compound I-072] | 352
CSc1ccc(N2C(=O)C(O)=C(C(=O)C(C)(C)C)C2c2ccccc2OCCO)cc1 (centres unmarked) [Compound I-081] | 151
CC(C)(C)C(=O)C1=C(O)C(=O)N(c2ccc(-c3nccs3)cc2)C1c1ccccc1OCCO (centres unmarked) [Compound I-082] | 650
CCc1ccccc1C1C(C(=O)C(C)(C)C)=C(O)C(=O)N1c1ccc(-c2ccon2)cc1 (centres unmarked) [Compound I-091] | 341
COc1ccccc1C1C(C(=O)C(C)(C)C)=C(O)C(=O)N1c1ccc(-c2ccoc2)nc1 (centres unmarked) [Compound I-093] | 756
COc1ccccc1C1C(C(=O)C(C)(C)C)=C(O)C(=O)N1c1ccc(-c2cc[nH]c2)cc1 (centres unmarked) [Compound I-094] | 301
COc1ccccc1C1C2C(=O)C(C)(C)COC2(O)C(=O)N1c1ccc(-c2ccsc2)cn1 (centres unmarked) [Compound I-095] | 195
COCCOc1ccccc1C1C(C(=O)C(C)(C)C)=C(O)C(=O)N1c1ccc(-c2ccon2)cc1 (centres unmarked) [Compound I-098] | 370
COc1ccccc1C1C(C(=O)C(C)(C)C)=C(N)C(=O)N1c1ccc(-c2ccon2)cc1 (centres unmarked) [Compound I-102] | 134
CC(C)(C)C(=O)C1=C(O)C(=O)N(c2ccc(-c3ccon3)cc2)C1c1ccccc1OCC#N (centres unmarked) [Compound I-103] | 355
CC(C)(C)C(=O)C1=C(O)C(=O)N(c2ccc(-c3ccsc3)cc2)C1c1cccc[n+]1[O-] (centres unmarked) [Compound I-104] | 424
COc1ncccc1C1C(C(=O)C(C)(C)C)=C(O)C(=O)N1c1ccc(-c2ccsc2)nc1 (centres unmarked) [Compound I-108] | 192
CC(C)(C)C(=O)C1=C(O)C(=O)N(c2ccc(-c3ccon3)cc2)C1c1ccccc1S(C)(=O)=O (centres unmarked) [Compound I-111] | 624
CC(C)(C)C(=O)C1=C(O)C(=O)N(c2ccc(-c3cccs3)cc2)C1c1cccc[n+]1[O-] (centres unmarked) [Compound I-112] | 388

Continued, values first:

IC50 [nM] | SMILES
32 | CCOC(=O)c1ccc(N2C(=O)C(O)=C(C(=O)C(C)(C)C)C2c2ccccc2OC)cc1 (centres unmarked) [Compound I-001]
24 | CCC(CC)C1C(C(=O)c2ccc(C(=O)N(C)C)cc2)=C(O)C(=O)N1c1ccc(-c2noc(C)n2)cc1 (centres unmarked) [Compound I-002]
40 | CCC(CC)C1C(C(=O)c2ccc(C(=O)N(C)C)cc2)=C(O)C(=O)N1c1ccc(-c2ccon2)cc1 (centres unmarked) [Compound I-003]
12 | CCNC(=O)c1ccc(C(=O)C2=C(O)C(=O)N(c3ccc(-c4ccon4)cc3)C2C(CC)CC)cc1 (centres unmarked) [Compound I-004]
27 | CCCC(CCC)C1C(C(=O)c2ccc(CO)cc2)=C(O)C(=O)N1c1ccc(-c2ccon2)cc1 (centres unmarked) [Compound I-006]
100 | CCCCC(CCCC)C1C(C(=O)c2ccc(CO)cc2)=C(O)C(=O)N1c1ccc(-c2ccon2)cc1 (centres unmarked) [Compound I-007]
14 | CCC(CC)C1C(C(=O)c2ccc(C(=O)NCCO)cc2)=C(O)C(=O)N1c1ccc(-c2ccon2)cc1 (centres unmarked) [Compound I-008]
14 | COc1ccc(C(=O)C2=C(O)C(=O)N(c3nc4ccc(OC)cc4s3)C2C2CCCCC2)cc1 (centres unmarked) [Compound I-009]
12 | COc1ccc(C(=O)C2=C(O)C(=O)N(c3ccc(-c4ccco4)cc3)C2C2CCCCC2)cc1 (centres unmarked) [Compound I-015]
79 | O=C(C1=C(O)C(=O)N(c2ccc(-c3ccon3)cc2)C1C1CCCCC1)c1ccc(Br)cc1 (centres unmarked) [Compound I-016]
132 | CC(C)(C)C(=O)C1=C(O)C(=O)N(c2ccc(-c3ccon3)cc2)C1c1ccccc1OC(F)(F)F (centres unmarked) [Compound I-019]
21 | COc1ccc(C(=O)C2=C(O)C(=O)N(c3ccc(-c4nc(C)no4)cc3)C2C2CCCCC2)cc1 (centres unmarked) [Compound I-020]
40 | COc1ccc(C(=O)C2=C(O)C(=O)N(c3ccc(-c4cc(C)no4)cc3)C2c2ccccc2OC)cc1 (centres unmarked) [Compound I-027]
75 | COc1ccc(C(=O)C2=C(O)C(=O)N(c3ccc(C4=NCCS4)cc3)C2c2ccccc2OC)cc1 (centres unmarked) [Compound I-028]
53 | COc1ccc(C(=O)C2=C(O)C(=O)N(c3ccc(-c4noc(C)n4)cc3)C2c2ccccc2OC)cc1 (centres unmarked) [Compound I-030]
53 | COc1ccc(C(=O)C2=C(O)C(=O)N(c3ccc(-c4nnc(C)o4)cc3)C2c2ccccc2OC)cc1 (centres unmarked) [Compound I-033]
12 | COc1ccc(C(=O)C2=C(O)C(=O)N(c3ccc(-c4ccoc4)cc3)C2C2CCCCC2)cc1 (centres unmarked) [Compound I-039]
48 | COc1ccccc1C1C(C(=O)C(C)(C)C)=C(O)C(=O)N1c1ccc(-c2ccoc2)cc1 (centres unmarked) [Compound I-077]
23 | COc1ccccc1C1C(C(=O)C(C)(C)C)=C(O)C(=O)N1c1ccc(-c2cccs2)cc1 (centres unmarked) [Compound I-079]
48 | CC(C)(C)C(=O)C1=C(O)C(=O)N(c2ccc(-c3ccco3)cc2)C1c1ccccc1OCCO (centres unmarked) [Compound I-085]
92 | COc1ccccc1C1C(C(=O)C(C)(C)C)=C(O)C(=O)N1c1ccc(-c2ccco2)cc1 (centres unmarked) [Compound I-092]
97 | CC(C)Oc1ccccc1C1C(C(=O)C(C)(C)C)=C(O)C(=O)N1c1ccc(-c2ccon2)cc1 (centres unmarked) [Compound I-105]
